Data published in patent US12371428B2 (Exelixis, Inc., priority 2019, dated 2025).
Read-outs that look alike come from different tables or passages of the source.

Assays:
[1] = target: Human MET (residues 956-1390) (Homo sapiens (Human), UniProt P08581); assay: Human Met kinase assay, HTRF KinEase (Example D-2); type: biochemical; settings: read-out: c-Met IC50
Method in brief: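 IC50 values come from a 4-parameter logistic fit of the […] fluorescence ratio, set between DMSO (100%) and reference compound at 1 μM (0%). Reactions held MET 956-1390 at 0.1 ng/well, ATP at Km, biotinylated peptide, 5 mM MgCl2, 1 mM MnCl2, 1 mM DTT and 3% DMSO, and ran 40 min at room temperature before streptavidin-XL665/Eu-antibody detection.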

[2] = target: AXL (phospho-AXL, Gas6-stimulated A-172 glioblastoma cells) (Homo sapiens (Human), UniProt P30530); assay: AXL autophosphorylation ELISA in A-172 cells (Example E); type: cell-based
Method in brief: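 Phospho-AXL in lysates was quantified by ELISA, normalised to DMSO (100%) and reference inhibitor (0%) controls. IC50 by 4-parameter logistic fit.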

[3] = target: Met (phospho-Met, HGF-stimulated PC-3 prostate cancer cells) (Homo sapiens (Human), UniProt P08581); assay: Met autophosphorylation ELISA in PC-3 cells (Example F); type: cell-based; settings: cellular activity, read-out: c-Met IC50
Method in brief: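 Sandwich ELISA for phospho-Met (panTyr) in PC-3 lysates. Cells starved 3 h serum-free, compound 1 h (8-pt curve, 0.3% DMSO), HGF 100 ng/mL 10 min. 100% = HGF + DMSO; 0% = HGF + reference inhibitor. IC50 by 4-parameter fit.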

[4] = target: KDR (phospho-KDR, VEGF165-stimulated HUVEC cells) (Homo sapiens (Human), UniProt P35968); assay: KDR autophosphorylation ELISA in HUVEC cells (Example G); type: cell-based; settings: cellular activity
Method in brief: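 HUVECs were serum-starved 24 h, given compound as an 8-point dilution series (0.3% DMSO final) for 1 h, then stimulated with 100 ng/mL VEGF165 for 5 min. Lysate phospho-KDR was quantified by sandwich ELISA against a phospho-KDR standard, and IC50s came from a 4-parameter logistic fit.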

[5] = target: Mer (phospho-Mer, MERTK-transfected 293A cells) (Homo sapiens (Human), UniProt Q12866); assay: Mer autophosphorylation ELISA in transient transfected 293A cells (Example H); type: cell-based; settings: cellular activity
Method in brief: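 Inhibition of cellular Mer autophosphorylation is determined in 293A cells transiently expressing human MERTK after 1 h compound exposure (8 concentrations, serum-free, 0.3% DMSO). Phospho-Mer in clarified lysates is measured by ELISA, with DMSO and reference-inhibitor wells defining the 100% and 0% activity limits.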

[6] = cellular activity, AXL autophosphorylation ELISA in A-172 cells, read-out: Axl IC50
[7] = Met autophosphorylation ELISA in PC-3 cells
[8] = KDR autophosphorylation ELISA in HUVEC cells
[9] = Mer autophosphorylation ELISA in transient transfected 293A cells

Chain of Met (phospho-Met, HGF-stimulated PC-3 prostate cancer cells) (P08581 25-1390): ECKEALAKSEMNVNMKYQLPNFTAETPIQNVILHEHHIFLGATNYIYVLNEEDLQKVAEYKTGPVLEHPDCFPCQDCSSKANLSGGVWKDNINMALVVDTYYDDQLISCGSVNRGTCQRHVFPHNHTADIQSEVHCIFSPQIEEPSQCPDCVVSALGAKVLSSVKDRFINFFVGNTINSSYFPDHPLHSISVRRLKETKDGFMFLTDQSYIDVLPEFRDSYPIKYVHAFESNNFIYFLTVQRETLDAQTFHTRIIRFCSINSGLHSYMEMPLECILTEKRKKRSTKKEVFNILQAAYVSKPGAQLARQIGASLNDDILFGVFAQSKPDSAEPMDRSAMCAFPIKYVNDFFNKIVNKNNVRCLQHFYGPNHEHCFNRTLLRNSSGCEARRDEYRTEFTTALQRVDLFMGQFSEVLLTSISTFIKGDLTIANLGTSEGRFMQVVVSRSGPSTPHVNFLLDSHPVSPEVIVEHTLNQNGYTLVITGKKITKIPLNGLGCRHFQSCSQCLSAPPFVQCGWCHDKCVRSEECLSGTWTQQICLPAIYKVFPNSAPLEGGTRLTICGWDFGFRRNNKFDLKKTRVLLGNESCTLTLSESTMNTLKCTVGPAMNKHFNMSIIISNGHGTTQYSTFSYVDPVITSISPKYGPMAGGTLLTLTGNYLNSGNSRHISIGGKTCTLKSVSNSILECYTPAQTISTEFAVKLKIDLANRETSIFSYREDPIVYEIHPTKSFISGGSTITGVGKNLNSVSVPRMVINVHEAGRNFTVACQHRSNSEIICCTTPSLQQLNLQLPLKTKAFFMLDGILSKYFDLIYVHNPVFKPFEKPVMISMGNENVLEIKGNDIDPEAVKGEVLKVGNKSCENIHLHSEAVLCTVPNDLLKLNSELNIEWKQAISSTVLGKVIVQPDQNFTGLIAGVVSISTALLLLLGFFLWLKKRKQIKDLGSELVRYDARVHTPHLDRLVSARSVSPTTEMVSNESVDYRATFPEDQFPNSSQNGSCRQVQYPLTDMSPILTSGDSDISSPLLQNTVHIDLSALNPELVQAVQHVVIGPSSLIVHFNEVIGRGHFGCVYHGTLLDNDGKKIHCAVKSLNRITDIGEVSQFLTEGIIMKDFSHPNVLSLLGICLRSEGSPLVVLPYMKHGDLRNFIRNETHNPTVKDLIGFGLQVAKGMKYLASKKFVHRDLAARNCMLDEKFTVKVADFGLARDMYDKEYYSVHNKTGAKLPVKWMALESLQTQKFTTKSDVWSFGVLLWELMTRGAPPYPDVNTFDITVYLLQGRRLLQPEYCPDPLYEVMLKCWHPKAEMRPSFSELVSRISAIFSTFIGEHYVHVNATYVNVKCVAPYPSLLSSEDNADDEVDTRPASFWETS
Chain of KDR (phospho-KDR, VEGF165-stimulated HUVEC cells) (P35968 20-1356): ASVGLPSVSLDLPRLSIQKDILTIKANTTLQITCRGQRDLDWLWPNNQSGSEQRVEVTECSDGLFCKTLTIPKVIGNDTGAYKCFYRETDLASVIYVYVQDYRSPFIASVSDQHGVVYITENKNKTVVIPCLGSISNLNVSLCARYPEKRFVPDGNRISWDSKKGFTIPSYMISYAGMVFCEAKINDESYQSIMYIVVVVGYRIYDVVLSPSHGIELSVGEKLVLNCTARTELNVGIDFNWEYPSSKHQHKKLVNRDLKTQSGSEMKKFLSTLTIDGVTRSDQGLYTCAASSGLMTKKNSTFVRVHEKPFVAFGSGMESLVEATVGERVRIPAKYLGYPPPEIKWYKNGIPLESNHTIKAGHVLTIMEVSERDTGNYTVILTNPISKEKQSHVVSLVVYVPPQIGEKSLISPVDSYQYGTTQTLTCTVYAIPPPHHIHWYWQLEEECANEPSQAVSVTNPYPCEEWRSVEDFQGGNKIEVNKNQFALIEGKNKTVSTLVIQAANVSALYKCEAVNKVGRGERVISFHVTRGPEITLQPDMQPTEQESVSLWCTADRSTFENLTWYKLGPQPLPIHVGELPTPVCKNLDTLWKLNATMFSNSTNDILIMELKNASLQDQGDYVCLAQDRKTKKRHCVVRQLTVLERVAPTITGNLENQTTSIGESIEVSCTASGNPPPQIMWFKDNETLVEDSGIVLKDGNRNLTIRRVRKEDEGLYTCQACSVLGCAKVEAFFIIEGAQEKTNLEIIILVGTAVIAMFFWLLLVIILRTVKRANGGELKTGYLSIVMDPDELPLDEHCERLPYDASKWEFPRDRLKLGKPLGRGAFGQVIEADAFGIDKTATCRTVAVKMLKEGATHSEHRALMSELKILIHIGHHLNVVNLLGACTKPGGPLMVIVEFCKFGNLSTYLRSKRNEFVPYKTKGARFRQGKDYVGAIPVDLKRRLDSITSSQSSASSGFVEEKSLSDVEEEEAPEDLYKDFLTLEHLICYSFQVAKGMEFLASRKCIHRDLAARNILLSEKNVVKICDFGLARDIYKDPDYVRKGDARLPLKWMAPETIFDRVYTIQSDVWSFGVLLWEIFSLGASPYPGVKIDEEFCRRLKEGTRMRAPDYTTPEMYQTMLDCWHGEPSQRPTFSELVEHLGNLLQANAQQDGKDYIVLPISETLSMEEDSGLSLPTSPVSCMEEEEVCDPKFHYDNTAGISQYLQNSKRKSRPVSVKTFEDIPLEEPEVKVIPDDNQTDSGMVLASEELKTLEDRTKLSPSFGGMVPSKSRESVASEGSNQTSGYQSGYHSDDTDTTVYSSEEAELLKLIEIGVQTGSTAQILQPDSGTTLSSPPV
Chain of Mer (phospho-Mer, MERTK-transfected 293A cells) (Q12866 21-999): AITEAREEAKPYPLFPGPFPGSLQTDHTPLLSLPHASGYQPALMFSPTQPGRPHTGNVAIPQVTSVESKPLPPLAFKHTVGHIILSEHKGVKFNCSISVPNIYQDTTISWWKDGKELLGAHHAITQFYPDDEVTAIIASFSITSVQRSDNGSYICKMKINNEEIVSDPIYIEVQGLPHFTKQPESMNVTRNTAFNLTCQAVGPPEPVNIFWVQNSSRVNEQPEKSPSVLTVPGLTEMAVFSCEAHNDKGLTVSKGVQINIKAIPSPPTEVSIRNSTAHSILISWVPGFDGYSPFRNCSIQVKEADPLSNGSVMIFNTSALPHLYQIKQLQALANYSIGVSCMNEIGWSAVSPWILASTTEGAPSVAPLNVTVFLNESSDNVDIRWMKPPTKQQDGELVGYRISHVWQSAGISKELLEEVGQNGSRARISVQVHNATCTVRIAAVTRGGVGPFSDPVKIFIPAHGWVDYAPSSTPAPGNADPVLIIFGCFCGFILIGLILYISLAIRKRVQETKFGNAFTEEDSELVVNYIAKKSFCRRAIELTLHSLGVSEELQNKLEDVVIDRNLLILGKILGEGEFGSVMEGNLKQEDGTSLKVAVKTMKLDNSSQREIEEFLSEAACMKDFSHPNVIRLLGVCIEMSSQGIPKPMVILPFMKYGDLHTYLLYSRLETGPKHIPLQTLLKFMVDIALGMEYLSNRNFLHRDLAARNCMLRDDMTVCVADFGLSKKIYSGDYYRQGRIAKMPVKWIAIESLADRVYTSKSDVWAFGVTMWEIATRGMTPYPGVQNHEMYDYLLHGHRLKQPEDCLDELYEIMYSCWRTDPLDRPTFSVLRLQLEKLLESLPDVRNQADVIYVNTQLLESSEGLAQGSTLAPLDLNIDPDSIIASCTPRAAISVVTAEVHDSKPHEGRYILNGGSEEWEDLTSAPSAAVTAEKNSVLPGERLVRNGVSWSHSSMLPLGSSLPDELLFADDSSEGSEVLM
Chain of AXL (phospho-AXL, Gas6-stimulated A-172 glioblastoma cells) (P30530 26-894): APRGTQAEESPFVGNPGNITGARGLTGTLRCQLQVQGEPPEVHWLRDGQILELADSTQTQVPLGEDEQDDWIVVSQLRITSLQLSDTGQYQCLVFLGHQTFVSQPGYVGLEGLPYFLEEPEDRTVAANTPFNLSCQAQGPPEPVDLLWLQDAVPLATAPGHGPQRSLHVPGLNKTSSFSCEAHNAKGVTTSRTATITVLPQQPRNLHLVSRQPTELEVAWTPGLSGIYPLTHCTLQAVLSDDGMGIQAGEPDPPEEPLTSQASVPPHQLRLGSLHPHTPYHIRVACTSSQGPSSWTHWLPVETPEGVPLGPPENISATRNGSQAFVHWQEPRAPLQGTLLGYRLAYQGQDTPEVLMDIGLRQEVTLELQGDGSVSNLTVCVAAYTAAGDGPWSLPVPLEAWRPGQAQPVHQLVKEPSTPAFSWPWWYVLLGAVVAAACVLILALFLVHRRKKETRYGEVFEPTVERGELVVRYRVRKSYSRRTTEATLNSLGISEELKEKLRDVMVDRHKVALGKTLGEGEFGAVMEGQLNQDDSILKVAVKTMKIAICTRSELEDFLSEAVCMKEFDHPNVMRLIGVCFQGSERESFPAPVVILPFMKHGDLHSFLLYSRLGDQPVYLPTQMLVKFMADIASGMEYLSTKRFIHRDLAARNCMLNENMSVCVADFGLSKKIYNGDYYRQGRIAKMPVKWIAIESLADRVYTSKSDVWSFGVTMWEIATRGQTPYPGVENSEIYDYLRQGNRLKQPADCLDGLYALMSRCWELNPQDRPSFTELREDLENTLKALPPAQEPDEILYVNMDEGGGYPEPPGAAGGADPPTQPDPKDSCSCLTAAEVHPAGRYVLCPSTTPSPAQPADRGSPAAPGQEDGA
Chain of Human MET (residues 956-1390) (P08581 956-1390): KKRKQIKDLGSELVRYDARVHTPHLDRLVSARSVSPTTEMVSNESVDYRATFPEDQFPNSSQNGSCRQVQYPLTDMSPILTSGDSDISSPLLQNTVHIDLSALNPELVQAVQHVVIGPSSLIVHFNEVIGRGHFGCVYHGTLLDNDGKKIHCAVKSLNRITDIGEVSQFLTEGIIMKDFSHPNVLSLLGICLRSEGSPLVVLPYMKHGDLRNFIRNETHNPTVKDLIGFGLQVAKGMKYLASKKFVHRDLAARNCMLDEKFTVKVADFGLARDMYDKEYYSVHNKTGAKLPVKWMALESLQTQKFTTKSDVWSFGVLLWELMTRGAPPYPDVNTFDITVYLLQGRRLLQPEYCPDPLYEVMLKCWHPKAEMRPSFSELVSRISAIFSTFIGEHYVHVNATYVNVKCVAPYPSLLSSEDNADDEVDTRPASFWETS

Compound | IC50 ([1]; protocol of Example D-2) | IC50 [2, 6] | IC50 [3, 7] | IC50 [4, 8] | IC50 [5, 9] | IC50 ([1]; protocol of Example D-2 (other compounds)) | IC50 [2] | IC50 ([2]; cellular activity, A-172 cells, read-out: Axl IC50) | IC50 ([3]; PC-3 cells) | IC50 ([4]; HUVEC cells) | IC50 ([5]; transfected 293A cells)
COc1cc2nccc(Oc3ccc(NC(=O)c4cn(C5CNC5)cc(-c5ccc(F)cc5)c4=O)cc3F)c2nc1OC [Compound 576, 1-(Azetidin-3-yl)-N-[4-[(6,7-dimethoxy-1,5-naphthyridin-4-yl)oxy]-3-fluorophenyl]-5-(4-fluorophenyl)-4-oxopyridine-3-carboxamide] | < 100 nM | < 100 nM | < 100 nM | > 300 nM | < 100 nM | – | – | – | – | – | –
COc1cc2nccc(Oc3ccc(NC(=O)c4cn(C5CN(C)C5)cc(-c5ccc(F)cc5)c4=O)cc3F)c2nc1OC [Compound 52, N-[4-[(6,7-Dmethoxy-1,5-naphthyridin-4-yl)oxy]-3-fluorophenyl]-5-(4-fluorophenyl)-1-(1-methylazetidin-3-yl)-4-oxopyridine-3-carboxamide] | – | < 100 nM | < 100 nM | > 300 nM | < 100 nM | < 100 nM | – | – | – | – | –
Cc1cnc(C(=O)Nc2ccc(Oc3ccnc4cnc(Cl)cc34)c(F)c2)c(=O)n1-c1ccc(F)cc1 [Compound 498, N-[4-[(6-chloro-1,7-naphthyridin-4-yl)oxy]-3-fluorophenyl]-4-(4-fluorophenyl)-5-methyl-3-oxopyrazine-2-carboxamide] | – | < 100 nM | < 100 nM | > 300 nM | < 100 nM | – | – | – | – | – | –
COc1cc2nccc(Oc3ccc(NC(=O)c4c(C)c(C(C)=O)cn(-c5ccc(F)cc5C)c4=O)cc3F)c2nc1OC [Compound 739, 5-acetyl-N-[4-[(6,7-dimethoxy-1,5-naphthyridin-4-yl)oxy]-3-fluorophenyl]-1-(4-fluoro-2-methylphenyl)-4-methyl-2-oxopyridine-3-carboxamide] | – | < 100 nM | < 100 nM | > 300 nM | < 100 nM | – | – | – | – | – | –
CCOc1c(C(=O)Nc2ccc(Oc3ccnc4cc(OC)c(OC)nc34)c(F)c2)cnc(C)c1-c1ccc(F)cc1 [Compound 333, N-[4-[(6,7-dimethoxy-1,5-naphthyridin-4-yl)oxy]-3-fluorophenyl]-4-ethoxy-5-(4-fluorophenyl)-6-methylpyridine-3-carboxamide] | – | < 100 nM | < 100 nM | 100 to 300 nM | < 100 nM | – | – | – | – | – | –
C=Cc1c(C)c(C(=O)Nc2ccc(Oc3ccnc4cc(OCCOC)c(OC)nc34)c(F)c2)c(=O)n(-c2ccc(F)cc2)c1C [Compound 740, 5-ethenyl-N-[3-fluoro-4-[[6-methoxy-7-(2-methoxyethoxy)-1,5-naphthyridin-4-yl]oxy]phenyl]-1-(4-fluorophenyl)-4,6-dimethyl-2-oxopyridine-3-carboxamide] | – | < 100 nM | < 100 nM | < 100 nM | < 100 nM | – | – | – | – | – | –
COc1cc2nccc(Oc3ccc(NC(=O)c4c(C)c(C(C)=O)c(C)n(-c5ccc(F)cc5)c4=O)cc3F)c2nc1OC [Compound 321, 5-Acetyl-N-[4-[(6,7-dimethoxy-1,5-naphthyridin-4-yl)oxy]-3-fluorophenyl]-1-(4-fluorophenyl)-4,6-dimethyl-2-oxopyridine-3-carboxamide] | – | – | < 100 nM | 100 to 300 nM | < 100 nM | – | < 100 nM | – | – | – | –
COc1cnc2c(Oc3ccc(NC(=O)c4c(C)nc(C)c(-c5ccc(F)cc5OC)c4O)cc3F)ccnc2c1 [Compound 686, N-[3-fluoro-4-[(7-methoxy-1,5-naphthyridin-4-yl)oxy]phenyl]-5-(4-fluoro-2-methoxyphenyl)-4-hydroxy-2,6-dimethylpyridine-3-carboxamide] | – | < 100 nM | < 100 nM | < 100 nM | < 100 nM | – | – | – | – | – | –
COc1cc2nccc(Oc3ccc(NC(=O)c4c(C)c(C(N)=O)c(C)n(-c5ccc(F)cc5)c4=O)cc3)c2nc1OC [Compound 319, 5-N-[4-[(6,7-Dimethoxy-1,5-naphthyridin-4-yl)oxy]phenyl]-1-(4-fluorophenyl)-2,4-dimethyl-6-oxopyridine-3,5-dicarboxamide] | – | < 100 nM | < 100 nM | > 300 nM | < 100 nM | – | – | – | – | – | –
COc1cnc2c(Oc3ccc(NC(=O)c4c(C)ncc(-c5ccc(F)cc5OC)c4O)cc3F)ccnc2c1 [Compound 793, N-[3-fluoro-4-[(7-methoxy-1,5-naphthyridin-4-yl)oxy]phenyl]-5-(4-fluoro-2-methoxyphenyl)-4-hydroxy-2-methylpyridine-3-carboxamide] | – | < 100 nM | < 100 nM | < 100 nM | < 100 nM | – | – | – | – | – | –
COc1cc2nccc(Oc3ccc(NC(=O)c4cn(C(F)F)c(C)c(-c5ccc(F)cc5)c4=O)cc3F)c2nc1OC [Compound 668, 1-(difluoromethyl)-N-[4-[(6,7-dimethoxy-1,5-naphthyridin-4-yl)oxy]-3-fluorophenyl]-5-(4-fluorophenyl)-6-methyl-4-oxopyridine-3-carboxamide] | – | < 100 nM | < 100 nM | < 100 nM | < 100 nM | – | – | – | – | – | –
COc1cc2nccc(Oc3ccc(NC(=O)c4c(OC)c(C(C)=O)cn(-c5ccc(F)cc5)c4=O)cc3F)c2nc1OC [Compound 754, 5-acetyl-N-[4-[(6,7-dimethoxy-1,5-naphthyridin-4-yl)oxy]-3-fluorophenyl]-1-(4-fluorophenyl)-4-methoxy-2-oxopyridine-3-carboxamide] | – | < 100 nM | < 100 nM | > 300 nM | < 100 nM | – | – | – | – | – | –
COc1cc(F)ccc1-c1cn(CC(F)F)c(C)c(C(=O)Nc2ccc(Oc3ccnc4cc(OC)c(OC)nc34)c(F)c2)c1=O [Compound 810, 1-(2,2-difluoroethyl)-N-[4-[(6,7-dimethoxy-1,5-naphthyridin-4-yl)oxy]-3-fluorophenyl]-5-(4-fluoro-2-methoxyphenyl)-2-methyl-4-oxopyridine-3-carboxamide] | – | – | – | – | – | – | – | < 100 nM | < 100 nM | < 100 nM | < 100 nM
